Test results: PubChem BioAssay AID330 (DTP/NCI, 2004)
Where “and” joins values, the source holds several entries; their conditions need not be identical. Equal entries are not always repeated. Inconclusive results and toxic doses are left out. How the source made its calls: active means survival T/C of 150% or more; inactive means T/C below 125% in these data.

System: P388 leukemia ip, CD2F1 mice, survival T/C
Assay: NCI In Vivo Anticancer Drug Screen. Data for tumor model P388 Leukemia (intraperitoneal) in CD2F1 (CDF1) mice
Conditions: endpoint: median survival time, higher = longer survival
In short: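 Mice carrying the transplanted tumor received test compound or vehicle. Survival was recorded in each group, and the value is the treated-group measurement divided by that of the vehicle-treated control group.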

[1] = dose: 50.0 mg/kg/injection, schedule: Q01DX005 (ip), vehicle: Klucel (hydroxypropylcellulose) (HPC)
[2] = dose: 100.0 mg/kg/injection, schedule: Q01DX005 (ip), vehicle: Klucel (hydroxypropylcellulose) (HPC)
[3] = dose: 200.0 mg/kg/injection, schedule: Q01DX005 (ip), vehicle: Klucel (hydroxypropylcellulose) (HPC)
[4] = dose: 100.0 mg/kg/injection, schedule: Q04DX003 (ip), vehicle: saline
[5] = dose: 200.0 mg/kg/injection, schedule: Q04DX003 (ip), vehicle: saline
[6] = dose: 25.0 mg/kg/injection, schedule: Q01DX009 (ip), vehicle: saline
[7] = dose: 50.0 mg/kg/injection, schedule: Q01DX009 (ip), vehicle: saline
[8] = dose: 60.0 mg/kg/injection, schedule: Q01DX005 (ip), vehicle: saline with Tween-80
[9] = dose: 120.0 mg/kg/injection, schedule: Q01DX005 (ip), vehicle: saline with Tween-80
[10] = dose: 240.0 mg/kg/injection, schedule: Q01DX005 (ip), vehicle: saline with Tween-80
[11] = dose: 100.0 mg/kg/injection, schedule: Q01DX009 (ip), vehicle: saline
[12] = dose: 200.0 mg/kg/injection, schedule: Q01DX009 (ip), vehicle: saline
[13] = dose: 50.0 mg/kg/injection, schedule: Q01DX005 (ip), vehicle: saline with Tween-80
[14] = dose: 100.0 mg/kg/injection, schedule: Q01DX005 (ip), vehicle: saline with Tween-80
[15] = dose: 100.0 mg/kg/injection, schedule: Q01DX001 (ip), vehicle: Klucel (hydroxypropylcellulose) (HPC)
[16] = dose: 12.5 mg/kg/injection, schedule: Q01DX005 (ip), vehicle: saline with Tween-80
[17] = dose: 100.0 mg/kg/injection, schedule: Q01DX009 (ip), vehicle: saline with Tween-80
[18] = dose: 50.0 mg/kg/injection, schedule: Q01DX009 (ip), vehicle: saline with Tween-80
[19] = dose: 200.0 mg/kg/injection, schedule: Q01DX009 (ip), vehicle: saline with Tween-80

Measured: T/C

CC(=O)OCC1OC(c2ccccc2)C/C(=N/O)C1OC(C)=O (configuration not stated)
inactive: [1] 96 % of control | [2] 93 % of control | [3] 94 % of control

CCC(=O)O[C@H]1CC[C@H]2[C@@H]3C[C@H](C)C4=CC(=O)C=C[C@]4(C)[C@H]3C(=O)C[C@]12C
inactive: dose: 100.0 mg/kg/injection, schedule: Q04DX003 (ip), vehicle: saline with Tween-80 90 % of control | dose: 200.0 mg/kg/injection, schedule: Q04DX003 (ip), vehicle: saline with Tween-80 104 % of control | dose: 400.0 mg/kg/injection, schedule: Q04DX003 (ip), vehicle: saline with Tween-80 100 % of control

Cc1cncn2c(C)nnc12
inactive: [4] 100 % of control | [5] 104 % of control

CCCCCCCCCC[N+]1([O-])CCCCCC1
inactive: dose: 12.5 mg/kg/injection, schedule: Q01DX009 (ip), vehicle: saline 100 % of control | [6] 106 % of control | [7] 94 % of control

O=C1CCC(c2nc3ccccc3[nH]2)N1Cc1csc(-c2ccccc2)n1 (configuration not stated)
inactive: [8] 98 % of control | [9] 93 % of control | [10] 88 % of control

O=C(OCCO)N1CCN(C(=O)OCCO)CC1
inactive: [7] 101 % of control | [11] 103 % of control | [12] 101 % of control | dose: 400.0 mg/kg/injection, schedule: Q01DX009 (ip), vehicle: saline 98 % of control

CCN(CC)CCN(Cc1ccccc1)C(=O)C1c2ccccc2Oc2ccccc21
inactive: [13] 102 % of control | [14] 105 % of control

O=C1C(CO)=C[C@H](O)[C@@]2(CO)O[C@@H]12
inactive: dose: 6.25 mg/kg/injection, schedule: Q04DX002 (ip), vehicle: saline 100 % of control | dose: 12.5 mg/kg/injection, schedule: Q04DX002 (ip), vehicle: saline 107 % of control | dose: 25.0 mg/kg/injection, schedule: Q04DX002 (ip), vehicle: saline 107 % of control | dose: 50.0 mg/kg/injection, schedule: Q04DX002 (ip), vehicle: saline 100 % of control | dose: 100.0 mg/kg/injection, schedule: Q04DX002 (ip), vehicle: saline 121 % of control

CCCCOC(=O)/C=C/C(=O)N1CC(C)N(C(=O)/C=C/C(=O)OCCCC)CC1C (configuration not stated)
inactive: [1] 105 % of control | [2] 100 % of control | [3] 100 % of control

Cc1ccc(C(=O)OC2C3(C)CCC(C3)C2(C)C)cc1 (configuration not stated)
inactive: [8] 100 % of control | [9] 100 % of control | [10] 94 % of control

COC(=O)c1nc(N)nc(C(=O)OC)c1C(=O)c1ccccn1
inactive: dose: 60.0 mg/kg/injection, schedule: Q01DX005 (ip), vehicle: Klucel (hydroxypropylcellulose) (HPC) 101 % of control | dose: 120.0 mg/kg/injection, schedule: Q01DX005 (ip), vehicle: Klucel (hydroxypropylcellulose) (HPC) 99 % of control

O=Nc1ccc(O)c2ncccc12
inactive: dose: 50.0 mg/kg/injection, schedule: Q01DX001 (ip), vehicle: Klucel (hydroxypropylcellulose) (HPC) 111 % of control | [15] 121 % of control

CCOc1ccc(N=Nc2c(O)n(-c3ccc(Br)cc3)c(=S)n(-c3ccc(OC)cc3)c2=O)cc1
inactive: dose: 100.0 mg/kg/injection, schedule: Q04DX002 (ip), vehicle: saline with Tween-80 91 % of control | dose: 200.0 mg/kg/injection, schedule: Q04DX002 (ip), vehicle: saline with Tween-80 91 % of control | dose: 400.0 mg/kg/injection, schedule: Q04DX002 (ip), vehicle: saline with Tween-80 94 % of control

C#CCOc1c(Cl)cc(Cl)c2ccccc12
inactive: dose: 100.0 mg/kg/injection, schedule: Q04DX003 (ip), vehicle: Klucel (hydroxypropylcellulose) (HPC) 100 % of control | dose: 200.0 mg/kg/injection, schedule: Q04DX003 (ip), vehicle: Klucel (hydroxypropylcellulose) (HPC) 93 % of control | dose: 400.0 mg/kg/injection, schedule: Q04DX003 (ip), vehicle: Klucel (hydroxypropylcellulose) (HPC) 93 % of control

CC1CCC(SC2CC(=O)CCC2=O)CC1 (configuration not stated)
inactive: [13] 104 % of control and 115 % of control | [14] 106 % of control and 115 % of control | dose: 200.0 mg/kg/injection, schedule: Q01DX005 (ip), vehicle: saline with Tween-80 122 % of control

N#CN=[N+]([O-])c1cccc(Cl)c1
inactive: dose: 3.12 mg/kg/injection, schedule: Q01DX009 (ip), vehicle: Klucel (hydroxypropylcellulose) (HPC) 101 % of control | dose: 6.25 mg/kg/injection, schedule: Q01DX009 (ip), vehicle: Klucel (hydroxypropylcellulose) (HPC) 108 % of control | dose: 6.25 mg/kg/injection, schedule: Q04DX003 (ip), vehicle: Klucel (hydroxypropylcellulose) (HPC) 101 % of control | dose: 12.5 mg/kg/injection, schedule: Q01DX009 (ip), vehicle: Klucel (hydroxypropylcellulose) (HPC) 98 % of control | dose: 12.5 mg/kg/injection, schedule: Q04DX003 (ip), vehicle: Klucel (hydroxypropylcellulose) (HPC) 104 % of control | dose: 25.0 mg/kg/injection, schedule: Q04DX003 (ip), vehicle: Klucel (hydroxypropylcellulose) (HPC) 91 % of control

COc1nc(=O)n(C2CCCO2)cc1Br (configuration not stated)
inactive: [8] 96 % of control | [9] 102 % of control | [10] 100 % of control

CSC(=S)N/N=C(\C)Cc1ccccn1
inactive: [16] 102 % of control | dose: 25.0 mg/kg/injection, schedule: Q01DX005 (ip), vehicle: saline with Tween-80 100 % of control | [13] 101 % of control and 95 % of control

CC(C)N=C(Nc1ccccc1)c1ccccc1
inactive: dose: 12.5 mg/kg/injection, schedule: Q01DX009 (ip), vehicle: saline with Tween-80 93 % of control | dose: 25.0 mg/kg/injection, schedule: Q01DX009 (ip), vehicle: saline with Tween-80 89 % of control | dose: 50.0 mg/kg/injection, schedule: Q01DX009 (ip), vehicle: saline + Tween-80 + alcohol 88 % of control

CCOC(=O)C1CCC/C1=N/Nc1ccc([N+](=O)[O-])cc1[N+](=O)[O-] (configuration not stated)
inactive: [15] 94 % of control | dose: 200.0 mg/kg/injection, schedule: Q01DX001 (ip), vehicle: Klucel (hydroxypropylcellulose) (HPC) 93 % of control | dose: 400.0 mg/kg/injection, schedule: Q01DX001 (ip), vehicle: Klucel (hydroxypropylcellulose) (HPC) 93 % of control

NC(c1ccccc1)S(=O)(=O)O (configuration not stated)
inactive: [6] 121 % of control | [7] 121 % of control | dose: 66.7 mg/kg/injection, schedule: Q01DX009 (ip), vehicle: saline with Tween-80 92 % of control | dose: 100.0 mg/kg/injection, schedule: Q01DX001 (ip), vehicle: saline 100 % of control | [17] 88 % of control | [11] 122 % of control | dose: 150.0 mg/kg/injection, schedule: Q01DX009 (ip), vehicle: saline with Tween-80 91 % of control | dose: 200.0 mg/kg/injection, schedule: Q01DX001 (ip), vehicle: saline 100 % of control | [12] 121 % of control | dose: 400.0 mg/kg/injection, schedule: Q01DX001 (ip), vehicle: saline 100 % of control

O=c1nc2n(c3ncccc13)CC=NN2
inactive: [8] 99 % of control | [9] 100 % of control

N#Cc1ccc(NN=NCCF)cc1
inactive: dose: 6.25 mg/kg/injection, schedule: Q01DX005 (ip), vehicle: distilled water + Tween-80 100 % of control | dose: 6.25 mg/kg/injection, schedule: Q01DX005 (ip), vehicle: saline with Tween-80 117 % of control | [16] 121 % of control

COC(=O)/C=C1\Sc2ccccc2NC1=O
inactive: [18] 96 % of control | [17] 96 % of control | [19] 94 % of control

Cc1nc2c(N)nn(C)c2nc1C
inactive: [18] 105 % of control | [17] 110 % of control | [19] 110 % of control

CC/C(=N\NS(=O)(=O)c1ccc(C)cc1)c1ccc(C)cc1
inactive: [4] 100 % of control | [5] 98 % of control | dose: 400.0 mg/kg/injection, schedule: Q04DX003 (ip), vehicle: saline 98 % of control

COC(=O)c1cc(=O)nc(NNC(C)=O)s1
inactive: [1] 103 % of control | [2] 96 % of control | [3] 106 % of control

OC(CC(O)(C(F)(F)F)C(F)(F)F)CC(O)(C(F)(F)F)C(F)(F)F
inactive: dose: 6.25 mg/kg/injection, schedule: Q04DX003 (ip), vehicle: saline with Tween-80 109 % of control | dose: 12.5 mg/kg/injection, schedule: Q04DX003 (ip), vehicle: saline with Tween-80 109 % of control | dose: 25.0 mg/kg/injection, schedule: Q04DX003 (ip), vehicle: saline with Tween-80 95 % of control
